Where two headings read alike, the source gives them in different places.
Key:
[1] = test system: OATP; test: Identification of transporters using inhibitors in hCMEC/D3 cells: OATP; assay type: cell-based, human; settings: substrate 10 μmol/L, inhibitor 100 μmol/L
Procedure: The toxicity of all compounds, including inhibitors and substrates, toward hCMEC/D3 cells, was assessed using the 3-(4,5-Dimethylthiazol-2-yl)-2,5-diphenyltetrazolium bromide (MTT) reduction assay as described previously. To assess the effects of pyrilamine-sensitive proton-coupled organic cation (H^+/OC) antiporter, organic anion transporter (OAT), organic anion-transporting polypeptides (OATPs), organic cation transporter (OCT), and novel organic cation–carnitine transporter (OCTN) inhibitors on the uptake process, IMM-H004 or IMM-H004G (10 µmol/L) combined with the inhibitors were added to the medium after preincubating the cells with the inhibitors for 30 min. For evaluating the impact of the multidrug and toxin extrusion transporter (MATE), P-glycoprotein (P-gp), multidrug resistance protein (MRP), and breast cancer resistance protein (BCRP) on the uptake, IMM-H004 or IMM-H004G (10 µmol/L) was preincubated with the cells for 2 h before the addition of the inhibitors. After removing the supernatant, the cells were washed twice with prewarmed HBSS and incubated with fresh HBSS for 20 min. At the end of incubation, the supernatants were collected. […] The protein content of the lysed cells was determined using a bicinchoninic acid (BCA) assay kit (Beyotime Inc., Shanghai, China). The results were expressed as a percentage of the vehicle control.

[2] = molecular target: T1, OATP1B3 (Homo sapiens, UniProt Q9NPD5); test: Uptake in MDCKⅡ-OATP1B3 cells; assay type: cell-based; settings: MDCKⅡ-OATP1B3, 30, 60 µmol/L, 20 or 40 min
T1 construct: expressed in transfected cells; host or cells: MDCKII
T1 sequence (Q9NPD5 1-702): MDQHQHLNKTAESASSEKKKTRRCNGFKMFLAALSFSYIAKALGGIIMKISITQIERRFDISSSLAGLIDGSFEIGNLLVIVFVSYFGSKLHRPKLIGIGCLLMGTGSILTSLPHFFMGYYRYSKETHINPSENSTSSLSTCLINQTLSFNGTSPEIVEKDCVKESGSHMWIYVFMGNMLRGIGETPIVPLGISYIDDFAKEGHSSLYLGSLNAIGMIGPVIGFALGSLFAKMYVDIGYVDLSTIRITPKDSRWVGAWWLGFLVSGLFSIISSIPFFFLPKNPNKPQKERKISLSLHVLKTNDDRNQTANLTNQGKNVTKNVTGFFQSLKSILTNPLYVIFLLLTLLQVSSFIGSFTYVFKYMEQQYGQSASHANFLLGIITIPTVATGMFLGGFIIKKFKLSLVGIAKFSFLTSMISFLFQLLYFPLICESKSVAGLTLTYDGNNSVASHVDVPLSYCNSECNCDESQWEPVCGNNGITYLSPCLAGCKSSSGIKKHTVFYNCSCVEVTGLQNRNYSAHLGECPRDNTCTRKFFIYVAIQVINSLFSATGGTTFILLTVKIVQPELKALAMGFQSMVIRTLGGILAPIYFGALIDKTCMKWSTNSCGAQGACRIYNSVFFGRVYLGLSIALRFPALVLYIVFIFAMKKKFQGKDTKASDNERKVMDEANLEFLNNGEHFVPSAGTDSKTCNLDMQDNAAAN
Procedure: Figure S4 Uptake of IMM-H004G in MDCKⅡ-OATP1B1 and MDCKⅡ-OATP1B3 cells. (a)
RSV (rosuvastatin, 30 µmol/L) is used as a positive group in MDCKⅡ-OATP1B1 cells. (b)
E17βG (estradiol-17β-glucuronide, 5 µmol/L) is used as a positive group in
MDCKⅡ-OATP1B3 cells. (c) IMM-H004G (30, 60 µmol/L) was incubated with
MDCKⅡ-OATP1B1 and MDCKⅡ-OATP1B3 cells for 20 or 40 min. The OATP
pan-inhibitor CsA (cyclosporin A) is 10 µmol/L. n=3 for positive substrates, and n=2 for
IMM-H004G. ***p < 0.001, **p < 0.01, *p < 0.05 vs. control group. ns, not significant.
(1 picture or pasted object on this page, not shown here)

[3] = test system: SH-SY5Y cells; test: In vitro metabolism in human brain cells (SH-SY5Y); assay type: in vitro ADME; settings: IMM-H004 1–100 μmol/L
Procedure: SH-SY5Y, HEB, and hCMEC/D3 cells were utilized to investigate the in vitro metabolism of IMM-H004 and IMM-H004G in the brain. SH-SY5Y and HEB cells were cultured routinely in Dulbecco’s modified Eagle’s medium (DMEM) containing 10% fetal bovine serum and a 100 U/mL penicillin–100 μg/mL streptomycin solution. hCMEC/D3 cells were seeded on collagen type I coated 24-well plates and cultured in EndoGRO™-MV complete medium following the manufacturer’s guidelines. The cells were incubated at 37 °C, with 5% CO2, and were maintained in a humidified environment. Once the confluence reached 70–80%, the cells were digested using a 0.25% trypsin–EDTA solution, centrifuged at 200× g for 5 min, and then resuspended in a fresh culture medium. For each experiment, after seeding and 24 h incubation, the cells were washed twice with a prewarmed culture medium, and then IMM-H004 or IMM-H004G (1–100 μmol/L) dissolved in the culture medium was added. Incubation was carried out at 37 °C for 5 h or 24 h. After incubation, the supernatants were collected. Subsequently, the cells were washed with cold HBSS three times and lysed in a RIPA lysis buffer (Beyotime Inc., Shanghai, China). The concentrations of IMM-H004 and IMM-H004G were determined by liquid chromatography with tandem mass spectrometry (LC-MS/MS).

[4] = test system: P-gp; test: Bidirectional transport in MDCKⅡ-MDR1 cell monolayers; assay type: in vitro ADME; settings: dog
Procedure: To further validate the effect of P-gp on the transport of IMM-H004G or IMM-H004, MDCKⅡ-MDR1 cells were seeded onto polycarbonate membrane transwell inserts in 24-well plates and used for transport studies after 5 days or when the effective transepithelial electric resistance (TEER) values exceeded 300 Ω·cm^2. The monolayers were initially rinsed twice with HBSS. Subsequently, IMM-H004G or IMM-H004 (10 µmol/L) was added to either the apical or basolateral side of the monolayer. Aliquots of 50 µL were collected from the opposite compartment at various time points, covering a maximum duration of 120 min. Digoxin (5 μmol/L) was used as a positive substrate, while PSC833 (5 µmol/L) was used as an inhibitor in MDCKⅡ-MDR1 cells. The apparent permeability value (Papp) was calculated using the following equation:(2) Papp=dQ/dt/AC0 where dQ/dt is the slope of the cumulative transport amount over time during the study period. A is the base area of the insert, and C0 is the initial addition concentration.
The efflux ratio (ER) was calculated as follows:ER = Papp(B−A)/Papp(A−B) (3)

| SMILES | reduction of uptake by OATP inhibitor rifamycin [1] | uptake increase in OATP1B3-overexpressing cells compared to control cells [2] | production of IMM-H004G from IMM-H004 [3] | efflux ratio at 120 min ([4]; MDCK-MDR1, with PSC833 5 µmol/L, MDCKⅡ-MDR1, PSC833 5 µmol/L, read-out: efflux ratio (ER) in the presence of PSC833) | efflux ratio at 120 min ([4]; MDCK-MDR1, MDCKⅡ-MDR1, no inhibitor, IMM-H004 10 µmol/L, digoxin 5 μmol/L, read-out: efflux ratio (ER)) |
| --- | --- | --- | --- | --- | --- |
| COc1cc(OC2OC(C(=O)O)C(O)C(O)C2O)cc2oc(=O)c(N3CCN(C)CC3)c(C)c12 (centres unmarked) [IMM-H004G] | 39.6% | did not exceed a tenfold increase | – | – | – |
| COc1cc(O)cc2oc(=O)c(N3CCN(C)CC3)c(C)c12 [IMM-H004] | – | – | not detected | 1.1 | 2.96 |
